# From patent EP0791056B1, “LIPID-CLEAVAGE ENZYME COMPLEX” (priority 1994, dated 1996)
# Test system: Phosphodiesterase aus Schlangengift
# Assay: Enzymatic cleavage of AZT-DMDOPE, detection of cleavage products by thin-layer chromatography
# Format: biochemical
# Conditions: 10 mg AZT-DMDOPE in 0,1 M Tris, 0,5 mg enzyme, 15 h + 6 h at 37 °C
compound,measurement,value
"CCCCCCCCCCCCSCC(COP(=O)(O)OC[C@H]1O[C@@H](n2cc(C)c(=O)[nH]c2=O)C[C@@H]1N=[N+]=[N-])OCCCCCCCCCC (stereo partly shown) [AZT-DMDOPE, (3'-Desoxy-3'-azidothymidin)-5'-phosphorsäure-(3-dodecyl-mercapto-2-decyloxy)-propylester]",Fluoreszenzauslöschung DC,negativ
